Here are results for 42 molecules from patent publication US20150216182A1, “COMPOSITIONS AND METHODS OF THE ATTRACTION AND REPULSION OF INSECTS” (Olfactor Laboratories, Inc., priority 2012, published 2015).

Test [1] has as its system cpA neurons. Briefly: extracellular single-sensillum electrophysiology: inhibition of CO2-responsive (cpA) neuronal activity. To be noted: for Class: Table 10, single compounds, percent reduction in cpA activity compared to baseline; for Class (inhibitor class of the individual component): Inh = inhibitor.
The subject of the next test is female mosquitoes. Briefly: whole plant or invertebrate. Conditions: 2 h; for mortality at 200 µg/mL: read-out: % mortality with 0.2 mg/ml; for mortality at 2000 µg/mL: read-out: % mortality with 2 mg/ml.
Test [2] deals with cpA neurons. Kind of test: extracellular single-sensillum electrophysiology: activation of cpA neuronal activity. To be noted: for Class: Table 6, single compounds, increase over baseline cpA neuronal activity.
A further test concerns larvae. Briefly: larvicidal activity assay. It is filed as in vivo. To be noted: 24 hour exposure, dead larvae / total larvae; for pest or weed control at 0.25 %: read-out: % Lethality with 0.25% compound conc.; for pest or weed control at 100 ppm: read-out: % Lethality at 100 ppm. As to the method: A 6-well plate (Corning Life Sciences, Tewksbury, Mass.) is used to test a compound's larvicidal activity. […] After a 24 hour exposure, the number of dead larvae are counted and recorded.
The results are presented in Table 17 as % lethality (the number of dead larvae divided by the total number of larvae).

Where [3] appears, read: Table 13, single component alone.

On to `CC(=O)CC/C=C(\C)CCC=C(C)C` [OLI0089, Geranylacetone], for which the Class entry in the test with cpA neurons [1] is reported as “Mild Inhibitor (mild inhibitors (reducing activity by 20-40%))”. In addition, the “Class (inhibitor class of the individual component)” value in the test on cpA neurons [1] (setting [3]) was “Mild”.

For `CC(C)C(=O)OCC=Cc1ccccc1` [OLI0108, cinnamyl isobutyrate], in the test on female mosquitoes, the mortality at 200 µg/mL worked out at 10% and the mortality at 2000 µg/mL amounted to 100%.

Consider `C=CC(=O)CC` [OLI0023, ethylvinylketone], for which the Class entry in the test on cpA neurons [2] is “Moderate Activator (Moderate activators yield an increase in neuronal activity that is between 40 and 60 spk/sec over baseline neuronal activity)”.

`COC(=O)CCC(=O)OC` [OLI0040, dimethyl succinate]: the Class entry in the test on cpA neurons [2] was “Mild Activator (mild activators yield an increase in neuronal activity that is between 20 and 40 spk/sec over baseline neuronal activity)”.

With `CC(C=O)c1ccccc1` (stereo not shown) [OLI0034, 2-phenylpropionaldehyde], in the test with cpA neurons [2], the Class result is “Mild Activator (mild activators yield an increase in neuronal activity that is between 20 and 40 spk/sec over baseline neuronal activity)”.

Regarding Ultrazur [OLI0118], the “% Lethality with 0.25% compound conc.” value with larvae (0.25% compound) is on record as 100% lethal. Also, the “% Lethality at 100 ppm” value with larvae (100 ppm compound) is on record as 0% lethal.

Consider `COc1ncccc1C`, for which the “effect on CO2-receptor activity (FIG. 1)” value in the test with cpA neurons [1] (1% concentration in paraffin oil) is “inhibitor”.

As for `Cc1cccc(C=O)c1` [OLI0060, m-tolualdehyde], the Class entry with cpA neurons [2] is “Mild Activator (mild activators yield an increase in neuronal activity that is between 20 and 40 spk/sec over baseline neuronal activity)”.

As to `CCCCCCCCO` [OLI0080, 1-octanol], the Class entry in the test on cpA neurons [1] is “Mild Inhibitor (mild inhibitors (reducing activity by 20-40%))”. The “Class (inhibitor class of the individual component)” value in the test with cpA neurons [1] (setting [3]) is “Mild”; in the test on cpA neurons [1] (Table 16, single component alone) it was “Mild”.

`COC(=O)CC(C)C` [OLI0058, methyl isovalerate]: the Class entry with cpA neurons [2] was “Mild Activator (mild activators yield an increase in neuronal activity that is between 20 and 40 spk/sec over baseline neuronal activity)”.

Turning to `CCCCCCC=O` [OLI0049, heptaldehyde], the Class result with cpA neurons [2] is “Mild Activator (mild activators yield an increase in neuronal activity that is between 20 and 40 spk/sec over baseline neuronal activity)”.

For `CC(=O)c1cnccn1` [OLI0038, acetyl-2-pyrazine], the Class result in the test with cpA neurons [2] is “Mild Activator (mild activators yield an increase in neuronal activity that is between 20 and 40 spk/sec over baseline neuronal activity)”.

As to `CCOC(=O)c1cccnc1` [OLI0085, ethyl nicotinate], the Class result in the test on cpA neurons [1] is reported as “Mild Inhibitor (mild inhibitors (reducing activity by 20-40%))”.

On to `C/C=C(\C)C(=O)OC(C)C` [OLI0057, isopropyl tiglate], for which the Class entry with cpA neurons [2] is “Mild Activator (mild activators yield an increase in neuronal activity that is between 20 and 40 spk/sec over baseline neuronal activity)”.

On to `CCC(=O)OCC(C)C` [OLI0054, isobutyl propionate], for which the Class entry in the test on cpA neurons [2] is “Mild Activator (mild activators yield an increase in neuronal activity that is between 20 and 40 spk/sec over baseline neuronal activity)”.

As to `CCCCCC=O` [OLI0051, hexanal], the Class entry in the test with cpA neurons [2] was “Mild Activator (mild activators yield an increase in neuronal activity that is between 20 and 40 spk/sec over baseline neuronal activity)”.

Take `COc1cc(C)ccc1O` [OLI0033, 2-methoxy-4-methylphenol]: the Class entry in the test with cpA neurons [2] is “Mild Activator (mild activators yield an increase in neuronal activity that is between 20 and 40 spk/sec over baseline neuronal activity)”.

Regarding `CCCC(=O)OC(C)C(C)=O` (stereo not shown) [OLI0039, butan-3-one-2yl butanoate], in the test with cpA neurons [2], the Class result is “Mild Activator (mild activators yield an increase in neuronal activity that is between 20 and 40 spk/sec over baseline neuronal activity)”.

On to “dipropylenglykol-monomethyl ether [OLI0041]”, for which the Class entry in the test on cpA neurons [2] is “Mild Activator (mild activators yield an increase in neuronal activity that is between 20 and 40 spk/sec over baseline neuronal activity)”.

As for `O=Cc1ccccc1O` [OLI0116, Salicylaldehyde], in the test with female mosquitoes, the mortality at 200 µg/mL was 0% and the mortality at 2000 µg/mL came to 0%.

Turning to `CCCC(=O)CCC` [OLI0050, heptanone-4], the Class result with cpA neurons [2] was “Mild Activator (mild activators yield an increase in neuronal activity that is between 20 and 40 spk/sec over baseline neuronal activity)”.

Take `CCOC=O` [OLI0044, ethylformate]: in the test on cpA neurons [2], the Class result was “Mild Activator (mild activators yield an increase in neuronal activity that is between 20 and 40 spk/sec over baseline neuronal activity)”.

`CCOC(=O)CCC(C)=O` [OLI0047, ethyllevulinate]: the Class entry in the test with cpA neurons [2] is “Mild Activator (mild activators yield an increase in neuronal activity that is between 20 and 40 spk/sec over baseline neuronal activity)”.

`CCOC(=O)CC(C)O` (stereo not shown) [OLI0042, ethyl 3-hydroxybutyrate]: the Class result in the test on cpA neurons [2] was “Mild Activator (mild activators yield an increase in neuronal activity that is between 20 and 40 spk/sec over baseline neuronal activity)”. Moreover, in the test with female mosquitoes, the mortality at 200 µg/mL is 0% and the mortality at 2000 µg/mL was 0%. For the same molecule, the pest or weed control at 0.25 % with larvae (0.25% compound) was 0%. In addition, the pest or weed control at 100 ppm in the test with larvae (100 ppm compound) was found to be 0%.

As to `COc1ccccc1C=O` [OLI0061, o-anisaldehyde], the Class result in the test with cpA neurons [2] was “Mild Activator (mild activators yield an increase in neuronal activity that is between 20 and 40 spk/sec over baseline neuronal activity)”.

`CC1=CC(C)C(C=O)CC1` (stereo not shown) [OLI0031, 2,4-dimethyl-3-cyclohexene-carboxaldehyde]: the Class result with cpA neurons [2] was “Mild Activator (mild activators yield an increase in neuronal activity that is between 20 and 40 spk/sec over baseline neuronal activity)”.

With `C/C=C/C(=O)OCC(C)C` [OLI0055, isobutyl trans-2-butenoate], the Class entry in the test on cpA neurons [2] was “Mild Activator (mild activators yield an increase in neuronal activity that is between 20 and 40 spk/sec over baseline neuronal activity)”.

With `CCc1ccc(C=O)cc1` [OLI0036, 4-ethylbenzaldehyde], the Class result with cpA neurons [2] is “Mild Activator (mild activators yield an increase in neuronal activity that is between 20 and 40 spk/sec over baseline neuronal activity)”.

Take `CC1=CC(=O)CC(C)(C)C1=O` [OLI0037, 4-oxoisophorone]: in the test on cpA neurons [2], the Class entry is “Mild Activator (mild activators yield an increase in neuronal activity that is between 20 and 40 spk/sec over baseline neuronal activity)”.

With `CC(=O)OCC(C)C` [OLI0053, isobutyl acetate], the Class entry with cpA neurons [2] was “Mild Activator (mild activators yield an increase in neuronal activity that is between 20 and 40 spk/sec over baseline neuronal activity)”.

As for `CC(C)C(=O)OCC=Cc1ccccc1` [OLI0117, cinnamyl isobutyrate], in the test with larvae (0.25% compound), the pest or weed control at 0.25 % came to 100%. Further, the pest or weed control at 100 ppm in the test with larvae (100 ppm compound) came out at 0%.

On to `CCOC(=O)CC(C)C` [OLI0046, ethylisovalerate], for which the Class entry with cpA neurons [2] was “Mild Activator (mild activators yield an increase in neuronal activity that is between 20 and 40 spk/sec over baseline neuronal activity)”.

In the case of `CCOCc1ccco1` [OLI0048, furfurylethylether], in the test with cpA neurons [2], the Class result was “Mild Activator (mild activators yield an increase in neuronal activity that is between 20 and 40 spk/sec over baseline neuronal activity)”.

Take `Cc1ccc(C=O)c(C)c1` [OLI0030, 2,4-dimethyl benzaldehyde]: the Class entry in the test on cpA neurons [2] was “Mild Activator (mild activators yield an increase in neuronal activity that is between 20 and 40 spk/sec over baseline neuronal activity)”.

Consider `CCOC(=O)C(C)C` [OLI0045, ethylisobutyrate], for which the Class entry in the test on cpA neurons [2] is “Mild Activator (mild activators yield an increase in neuronal activity that is between 20 and 40 spk/sec over baseline neuronal activity)”.

In the case of `CCOC(=O)CC(C)=O` [OLI0022, ethylacetoacetate], the Class result in the test with cpA neurons [2] is “Moderate Activator (Moderate activators yield an increase in neuronal activity that is between 40 and 60 spk/sec over baseline neuronal activity)”. Besides, the “Comp A Class” value in the test on cpA neurons [2] (Table 9, component A tested individually) is reported as “Mod”. The “Comp B Class” value with cpA neurons [2] (Table 9, component B tested individually) is reported as “Mod”. Moreover, in the test with cpA neurons [2] (Table 15, single component alone, Mod Actv), the “Class B (activator class of the individual component)” value is given as “Mod”. In addition, in the test on female mosquitoes, the mortality at 200 µg/mL came to 0% and the mortality at 2000 µg/mL was determined as 0%.

Turning to `CC(=O)OCC=C(C)C` [OLI0062, prenylacetate], the Class result in the test on cpA neurons [2] was “Mild Activator (mild activators yield an increase in neuronal activity that is between 20 and 40 spk/sec over baseline neuronal activity)”.

Take `O=C(C=Cc1ccccc1)OCCc1ccccc1` [OLI0103, phenethyl cinnamate]: in the test with female mosquitoes, the mortality at 200 µg/mL was 5% and the mortality at 2000 µg/mL was 25%. In addition, the pest or weed control at 0.25 % in the test on larvae (0.25% compound) is 0%. In addition, in the test with larvae (100 ppm compound), the pest or weed control at 100 ppm was 0%.

Consider “ethyl-2,3,5(6)-dimethyl pyrazine [OLI0043]”, for which, in the test with cpA neurons [2], the Class entry is “Mild Activator (mild activators yield an increase in neuronal activity that is between 20 and 40 spk/sec over baseline neuronal activity)”.

In the case of `CCCC(=O)CC` [OLI0035, 3-hexanone], the Class entry in the test with cpA neurons [2] is “Mild Activator (mild activators yield an increase in neuronal activity that is between 20 and 40 spk/sec over baseline neuronal activity)”.

For the molecule `CCCC(=O)OC(C)C` [OLI0056, isopropyl butyrate], the Class entry in the test with cpA neurons [2] was “Mild Activator (mild activators yield an increase in neuronal activity that is between 20 and 40 spk/sec over baseline neuronal activity)”.

Take `CC(C)=C1CC[C@@H](C)CC1=O` [OLI0064, R-+ pulegone]: the Class result in the test with cpA neurons [2] was “Mild Activator (mild activators yield an increase in neuronal activity that is between 20 and 40 spk/sec over baseline neuronal activity)”.
